Test [1] deals with Primary neural stem cells. Description: in vitro screening method for oligodendrogenesis (CNPase+ cell count). Particulars: exposed five days, differentiated 15-18 days; compared to media control. It counts as cell-based, mice. The source says:
Primary neural stem cells generated from mice were screened for oligodendrogenic potential after treatment with 20HC, 22HC, 24HC, 25HC, and 27HC. Neural stem cells in 8-well chamber slides were exposed to the indicated oxysterol for five days, and then allowed to differentiate for 15-18 days. Following differentiation, cells were fixed and stained for oligodendrocyte markers CNPase and myelin basic protein (MBP) (FIG. 6A). Stained cells were randomly sampled with a 40× objective, using Stereo Investigator software to eliminate bias, while quantifying the number of oligodendrocytes. Each condition was sampled at 10-12 computer selected sites. Images were used to count the number of nucleated CNPase+ cells per high power field (HPF).

In test [2] the test system is EAE induced with MOG35-55 peptide in C57BL/6J mice. The test can be described thus: experimental allergic encephalitis (EAE) mouse model. It counts as in vivo. The protocol:
EAE was induced using myelin oligodendrocyte glycoprotein (MOG35-55) peptide using standard approaches (see, e.g., Bittner et al., J. Vis. Exp., 86: 51275 (2014); and Miller et al., Curr Protoc Immunol., Unit-15.1 (2007)) in 15 wild-type 8 week old C57BL/6J mice. TH17 T cell populations are pathogenic in the EAE model and have been implicated in multiple sclerosis (MS). Seven mice (3 male, 4 female) proceeded without further intervention while 8 mice (3 female and 5 male) were given daily 125 μL subcutaneous injections of 20HC resuspended in corn oil (10 mg/mL) two days prior to EAE induction and through day 14, just prior to peak clinical severity. Mice were scored daily for the development of ascending paralysis that is indicative of the development of EAE. In vivo treatment of mice with 20HC (50 mg/kg/day) disrupted the development of MS-like symptoms in the EAE model, as shown in FIGS. 9A and 9B.

A further test relates to NF-κB. The test can be described thus: NF-κB activation in LPS-treated primary splenic monocytes (western blot). It counts as cell-based, mice. To be noted: 1 μm 20HC for 24 hours, then 500 ng/mL LPS. The protocol: FIG. 7 is a Western blot showing the 20HC inhibition of NFκB pathway in primary splenic monocytes. Primary monocytes were exposed to media, 20HC (24 hour)+LPS (500 ng/ml), or LPS alone for 4 hours. 20HC prevented IκB degradation and p65 phosphorylation in LPS treated cells.
Splenocytes where harvested from postnatal day 12 mice. Monocytes were negatively selected using anti-CD3, CD19 magnetic beads. Cells were treated with vehicle control (DMSO) or 1 μm 20HC for 24 hours. After exposure to 20HC, monocytes were treated with 500 ng/mL of lipopolysaccharide (LPS) to activate the TLR4 receptor and activate NF-κB. Compared to control cells, LPS-treated cells degraded I-κB and phosphorylated p65 consistent with NF-κB activation (FIG. 7). I-κB degradation and phosphorylation of p65 was blocked in 20HC-treated monocytes.

The next test deals with naïve CD4+ T cells. The test can be described thus: TH17 polarization of naïve CD4+ T cells in vitro (flow cytometry, IL-17 production). Type of test: cell-based, rodent. Particulars: for cells polarized into the TH17 population: control cells 7.8%; for TH17 polarization (in words, FIG. 8): flow cytometry. The protocol: Naïve CD4 T cells were isolated from rodent spleen tissue using CD4 magnetic beads. CD4+ lymphocytes were cultured on plates coated with anti-CD3 antibody and anti-CD28 antibodies in the presence of rTGFb, rIL-6, and rIL-23 for 5 days. Four hours prior to flow cytometry analysis, the cells were stimulated with PMA, ionomycin, and Brefeldin A. The cells were then analyzed for IL-17 production (FIG. 8, wherein CD4+ T cell culture in the presence of CD3/CD28-coated beads with IMDM media containing rTGFβ (4 ng/ml), rIL-6 (20 ng/ml), rIL-23 (50 ng/ml), anti-IL-4 Ab, and anti-IFNg Ab with or without GW or HC for 5 days. PMA (50 ng/ml), Ionomycin (500 ng/ml) for […], and Brefeldin A (10 μg/ml) for last 3 h)). 7.8% of the control cells polarized into the TH17 population. The LXR agonist GW3965 prevented TH17 polarization (2.6%).

The next test addresses smoothened (SMO) (Homo sapiens, UniProt Q99835). To be noted: fibroblast cell culture systems; recent studies; cited from earlier work.
In test [3] the test system is Primary neural stem cells. Description: oligodendrocyte differentiation from neural stem cells, western blot for CNPase and MBP. Particulars: 1 μm and 0.5 μm for five days, then differentiation for 18 days. It counts as cell-based. The protocol:
FIG. 5 is a western blot analysis. Stem cells were treated with oxysterols at doses indicated for 5 days then allowed to differentiate for 18 days. Protein lysates were probed for oligodendrocyte-associated proteins CNPase and myelin basic protein (MBP). Primary neural stem cells were treated with 24-hydroxycholesterol and 25-hydroxycholesterol at 1 μm and 0.5 μm for five days, then allowed to differentiate for 18 days. Protein lysates were probed for oligodendrocyte-associated proteins CNPase and myelin basic protein (MBP).
(In general: A western blot detects proteins with antibodies after separation by electrophoresis.)

Test [4] concerns perinatal white matter injury in neonatal mice. The test can be described thus: mouse model of perinatal white matter injury (simulated bowel perforation and sepsis). Type of test: in vivo. The protocol: Perinatal bowel perforation is a common complication of premature birth and is strongly linked to myelin injury and cerebral palsy. A mouse model of perinatal white matter injury was developed. The model simulates a perinatal bowel perforation and sepsis by injection of donor cecal contents into the peritoneal cavity of neonatal mice on postnatal day 5. Using this model, the efficacy of 25-hydroxycholesterol in reversing white matter injury was tested. […] Breast-milk associated 25-HC reversed diffuse white matter injury. The cells were stained with oligodendrocyte marker CC1. 40× high power fields (PHF) were imaged.

“Also recorded” adds a separate entry of the source.

smoothened (SMO), sequence (Q99835 28-787): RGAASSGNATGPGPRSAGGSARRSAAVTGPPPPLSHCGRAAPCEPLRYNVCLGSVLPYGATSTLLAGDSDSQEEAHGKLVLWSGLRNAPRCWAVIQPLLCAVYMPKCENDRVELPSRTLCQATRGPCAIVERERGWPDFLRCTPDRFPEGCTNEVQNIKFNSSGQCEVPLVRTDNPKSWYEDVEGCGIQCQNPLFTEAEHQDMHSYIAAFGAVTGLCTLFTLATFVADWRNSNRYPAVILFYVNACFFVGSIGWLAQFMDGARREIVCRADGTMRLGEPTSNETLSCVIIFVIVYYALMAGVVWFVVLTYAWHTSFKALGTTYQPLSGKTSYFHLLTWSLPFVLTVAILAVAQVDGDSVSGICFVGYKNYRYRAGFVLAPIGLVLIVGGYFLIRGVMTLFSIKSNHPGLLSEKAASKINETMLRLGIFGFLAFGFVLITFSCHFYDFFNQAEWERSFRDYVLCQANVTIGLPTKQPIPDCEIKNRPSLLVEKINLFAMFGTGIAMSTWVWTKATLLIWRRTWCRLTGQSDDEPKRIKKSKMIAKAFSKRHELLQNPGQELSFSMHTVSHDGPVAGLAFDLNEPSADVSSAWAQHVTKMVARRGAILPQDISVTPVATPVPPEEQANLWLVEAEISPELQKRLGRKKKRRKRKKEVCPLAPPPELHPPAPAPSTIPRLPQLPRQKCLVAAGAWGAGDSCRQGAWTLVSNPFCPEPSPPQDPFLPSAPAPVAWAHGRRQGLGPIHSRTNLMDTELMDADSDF

As to `CC(C)CCC[C@](C)(O)[C@H]1CC[C@H]2[C@@H]3CC=C4C[C@@H](O)CC[C@]4(C)[C@H]3CC[C@@]21C` [20HC, 20α-Hydroxycholesterol], the “number of oligodendrocytes (nucleated CNPase+ cells per high power field)” value in test [1] is listed as “increased number”. Besides, in test [2] (50 mg/kg/day subcutaneous, from two days prior to EAE induction through day 14), the “development of MS-like symptoms” value is listed as “disrupted”. Also, the EAE clinical score entry in test [2] (compared to control mice over 46 days, p≤0.05) was “attenuation”. In the test on NF-κB, the I-κB degradation result is “blocked; also recorded: prevented” and the “phosphorylation of p65” value is given as “blocked; also recorded: prevented”. For the same compound, in the test with naïve CD4+ T cells (5 days culture), the “cells polarized into the TH17 population” value worked out at 2.2%. Besides, the “TH17 polarization (in words, FIG. 8)” value in the test on naïve CD4+ T cells is listed as “decrease”. Also, the “activation of the SHH pathway via direct binding to smoothened (SMO)” value at smoothened (SMO) is recorded as “activate”.

With `CC(C)CCC(O)[C@@H](C)[C@H]1CC[C@H]2[C@@H]3CC=C4C[C@@H](O)CC[C@]4(C)[C@H]3CC[C@]12C` (stereo partly drawn) [22HC, 22-hydroxycholesterol], the “number of oligodendrocytes (nucleated CNPase+ cells per high power field)” value in test [1] is “increased number”.

As for `CC(C)CC[C@@H](O)[C@@H](C)[C@H]1CC[C@H]2[C@@H]3CC=C4C[C@@H](O)CC[C@]4(C)[C@H]3CC[C@]12C` [22α-hydroxycholesterol], the “activation of the SHH pathway via direct binding to smoothened (SMO)” value at smoothened (SMO) is on record as “activate”.

`CC(C)C(O)CC[C@@H](C)[C@H]1CC[C@H]2[C@@H]3CC=C4C[C@@H](O)CC[C@]4(C)[C@H]3CC[C@]12C` (stereo partly drawn) [24HC, 24-hydroxycholesterol]: in test [1], the “number of oligodendrocytes (nucleated CNPase+ cells per high power field)” value is “increased number”. Further, the “expression of oligodendrocyte-associated proteins CNPase and MBP” value in test [3] is reported as “induced expression”. Moreover, the “cells polarized into the TH17 population” value in the test on naïve CD4+ T cells (5 days culture) is 2.1%. The “TH17 polarization (in words, FIG. 8)” value with naïve CD4+ T cells is “decrease”.

As for `C[C@H](CCCC(C)(C)O)[C@H]1CC[C@H]2[C@@H]3CC=C4C[C@@H](O)CC[C@]4(C)[C@H]3CC[C@]12C` [25HC, 25-hydroxycholesterol], the “myelin integrity (fluoromyelin staining)” value in test [4] (100 mg/kg/day for five days, compared to septic injured mice that received vehicle control) was “improved myelin integrity”. In test [4] (septic injured neonatal mice), the “diffuse white matter injury” value was “reversed”. For the same compound, the “numbers of mature oligodendrocytes (CC1+Olig2+)” value in test [4] (stereology, compared to septic injured mice, p<0.0001) is listed as “significantly higher”. In addition, the “number of oligodendrocytes (nucleated CNPase+ cells per high power field)” value in test [1] is on record as “increased number”. The “expression of oligodendrocyte-associated proteins CNPase and MBP” value in test [3] was “induced expression”. The “cells polarized into the TH17 population” value with naïve CD4+ T cells (higher doses) was 2.7%. In the test with naïve CD4+ T cells (low doses), the “cells polarized into the TH17 population” value is reported as 23.6% and the “TH17 polarization (in words, FIG. 8)” value is listed as “promote”.

Take `C[C@@H](CO)CCC[C@@H](C)[C@H]1CC[C@H]2[C@@H]3CC=C4C[C@@H](O)CC[C@]4(C)[C@H]3CC[C@]12C` [27HC, 27-hydroxycholesterol]: the “number of oligodendrocytes (nucleated CNPase+ cells per high power field)” value in test [1] is reported as “did not increase”.

In the case of `O=C(O)Cc1cccc(OCCCN(Cc2cccc(C(F)(F)F)c2Cl)CC(c2ccccc2)c2ccccc2)c1` [GW3965, reference compound], the “cells polarized into the TH17 population” value in the test on naïve CD4+ T cells (5 days culture) was 2.6%.

The record behind these values is patent publication US11458146B2, “Compositions and methods for the treatment of myelin related and inflammation related diseases or disorders” (Duke University, priority 2017, dated 2022).
